BigSolDB 2.1

O=[N+]([O-])N(CCO)CCO.O=[N+]([O-])O.O=[N+]([O-])O
solubility (mole fraction)
Conditions	in 1,2-dichloroethane	in 1,4-dioxane	in DMSO	in acetone	in acetonitrile	in dichloromethane	in ethanol	in ethyl acetate	in methanol	in toluene
283.15 K	0.388	0.191	0.0407	0.234	0.182	0.0359	0.00314	0.131	0.00238	0.0112
288.15 K	0.441	0.245	0.0506	0.26	0.258	0.0615	0.00518	0.17	0.00469	0.0143
293.15 K	0.524	0.318	0.0633	0.321	0.314	0.109	0.00751	0.209	0.0076	0.0177
298.15 K	0.587	0.371	0.0785	0.384	0.36	0.205	0.00986	0.285	0.0106	0.0252
303.15 K	0.641	0.425	0.107	0.439	0.456	0.367	0.0118	0.31	0.0126	0.0276
308.15 K	0.704	0.488	0.132	0.536	0.519	0.448	0.0131	0.334	0.0166	0.032
313.15 K	0.787	0.562	0.163	0.645	0.558	0.515	0.0139	0.362	0.0207	0.0374
